{"source": "patent US9308182B2", "about": "(TEVA PHARMACEUTICAL INDUSTRIES, LTD., priority 2012, dated 2016)", "key": {"MAO-A": {"target": "MAO-A (Rattus norvegicus, UniProt P21396)", "sequence (P21396 whole entry, the tested form may be a part)": "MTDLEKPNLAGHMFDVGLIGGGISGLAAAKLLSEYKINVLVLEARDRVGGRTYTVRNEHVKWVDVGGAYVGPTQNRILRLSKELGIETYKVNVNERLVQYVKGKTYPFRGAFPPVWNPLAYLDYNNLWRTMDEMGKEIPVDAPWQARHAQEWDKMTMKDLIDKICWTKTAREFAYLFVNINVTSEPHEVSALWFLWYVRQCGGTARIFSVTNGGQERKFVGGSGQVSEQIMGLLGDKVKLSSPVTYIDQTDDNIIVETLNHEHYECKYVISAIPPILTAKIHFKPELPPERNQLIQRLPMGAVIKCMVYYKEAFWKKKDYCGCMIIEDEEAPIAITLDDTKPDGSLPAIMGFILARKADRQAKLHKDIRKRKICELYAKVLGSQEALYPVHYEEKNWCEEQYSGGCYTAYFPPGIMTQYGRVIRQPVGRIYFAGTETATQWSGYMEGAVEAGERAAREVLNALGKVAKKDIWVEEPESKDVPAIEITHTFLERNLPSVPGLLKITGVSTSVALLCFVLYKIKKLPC", "assay": "in vivo", "settings": "rat, sc", "text": "(§1) ALZET® osmotic minipumps are described in Perkins L, Peer C, and Murphy-Hackley P. “Chapter 21: The use of mini-osmotic pumps in continuous infusion studies” in Handbook of Pre-Clinical Continuous Intravenous Infusion, (Smith & Healing, eds., Taylor and Francis, 2000), the contents of which are incorporated herein by reference.\n(§2) The osmotic minipumps were inserted subcutaneously with a single surgical procedure: after clipping the fur from the dorsal area and cleaning the skin with antiseptic skin preparation, about 1 cm long incision was made on the dorsum of the animal, midway between both scappulae. The pump was placed along the axis of the body to one side of the backbone. The incision was positioned about 1-2 cm caudal to the estimated caudal end of the minipump when it is in place.\n(§3) After two weeks of treatment the animals were sacrificed. From each rat, brain (half) and a part of liver were dissected and frozen. The intestine was excised about ½ cm below the stomach about 1-2 cm long, washed with sucrose 0.32 Molar and frozen at −70° C.\n(§4) Tissue homogenates were pre incubated (37° C.) in the presence of clorgyline or deprenyl to inhibit the activity of MAO-A or MAO-B respectively. For MAO-B determination, samples were incubated for 20 minutes with C^14 PEA 10 μM and for MAO-A determination samples were incubated 30 minutes with C^14 −5HT 100 μM as substrate Termination of the reaction was done by acidification. The labeled metabolites were extracted into toluene:ethyl acetate, and counted in a β counter."}, "MAO-B": {"target": "MAO-B (Rattus norvegicus, UniProt P19643)", "sequence (P19643 whole entry)": "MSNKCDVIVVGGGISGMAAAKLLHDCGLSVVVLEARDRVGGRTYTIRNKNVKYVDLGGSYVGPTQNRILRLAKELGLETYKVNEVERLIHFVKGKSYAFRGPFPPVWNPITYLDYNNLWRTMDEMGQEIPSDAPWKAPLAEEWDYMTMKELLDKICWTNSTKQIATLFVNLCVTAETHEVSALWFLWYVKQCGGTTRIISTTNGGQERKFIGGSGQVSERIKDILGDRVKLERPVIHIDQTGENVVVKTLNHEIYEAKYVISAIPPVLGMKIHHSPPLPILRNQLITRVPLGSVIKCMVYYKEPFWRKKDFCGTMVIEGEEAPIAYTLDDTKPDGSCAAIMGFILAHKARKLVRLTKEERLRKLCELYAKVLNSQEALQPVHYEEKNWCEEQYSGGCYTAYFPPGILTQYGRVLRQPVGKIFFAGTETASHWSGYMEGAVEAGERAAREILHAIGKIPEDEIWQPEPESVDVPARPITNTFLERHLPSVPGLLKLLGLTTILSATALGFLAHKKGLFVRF", "assay": "in vivo", "settings": "for MAO-B activity, brain / MAO-B activity, intestine / MAO-B activity, liver: two weeks; for inhibition at 0.02 mg/kg/day / inhibition at 0.4 mg/kg/day / inhibition at 0.8 mg/kg/day / inhibition at 0.05 mg/kg/day / inhibition at 0.1 mg/kg/day / inhibition at 0.2 mg/kg/day: rat", "text": "as §1, §2, §3, §4"}, "[1]": {"settings": "rats", "text": "as §1\nALZET® pumps groups were weighed on the first and last day of the study. The oral administered groups were weighed on the first day and also on day 6 and 13 of the study."}, "[2]": {"settings": "read-out: Percent of MAO-A inhibition, intestine"}, "[3]": {"settings": "read-out: Percent of MAO-A inhibition, liver"}, "[4]": {"settings": "po, read-out: Percent of MAO-B inhibition, brain"}, "[5]": {"settings": "po, read-out: Percent of MAO-B inhibition, intestine"}, "[6]": {"settings": "po, read-out: Percent of MAO-B inhibition, liver"}, "[7]": {"settings": "sc, read-out: Percent of MAO-B inhibition, brain"}, "[8]": {"settings": "sc, read-out: Percent of MAO-B inhibition, intestine"}, "[9]": {"settings": "sc, read-out: Percent of MAO-B inhibition, liver"}}, "note": "Like-named read-outs stand apart in the source and are kept apart here.", "data": [{"smiles": "C#CCN[C@@H]1CCc2ccccc21", "note": "[rasagiline, R(+)-N-propargyl-l-aminoindan]", "values": [{"measurement": "inhibition at 0.4 mg/kg/day", "setting": "MAO-A; [2]", "value": 34, "unit": "%"}, {"measurement": "inhibition at 0.8 mg/kg/day", "setting": "MAO-A; [2]", "value": 42, "unit": "%"}, {"measurement": "inhibition at 0.02 mg/kg/day", "setting": "MAO-A; [3]", "value": 1, "unit": "%"}, {"measurement": "inhibition at 0.05 mg/kg/day", "setting": "MAO-A; [3]", "value": 1, "unit": "%"}, {"measurement": "inhibition at 0.1 mg/kg/day", "setting": "MAO-A; [3]", "value": 13, "unit": "%"}, {"measurement": "inhibition at 0.2 mg/kg/day", "setting": "MAO-A; [3]", "value": 71, "unit": "%"}, {"measurement": "inhibition at 0.4 mg/kg/day", "setting": "MAO-A; [3]", "value": 99, "unit": "%"}, {"measurement": "inhibition at 0.8 mg/kg/day", "setting": "MAO-A; [3]", "value": 100, "unit": "%"}, {"measurement": "MAOB inhibition in the brain, ALZET pumps versus oral group", "setting": "MAO-B; brain", "value": "No change"}, {"measurement": "MAO-B activity, brain", "setting": "MAO-B; brain, oral, 0.02 mg/kg/day (salt)", "value": 1586, "unit": "dpm"}, {"measurement": "MAO-B activity, brain", "setting": "MAO-B; brain, oral, 0.05 mg/kg/day (salt)", "value": 494, "unit": "dpm"}, {"measurement": "MAO-B activity, brain", "setting": "MAO-B; brain, oral, 0.1 mg/kg/day (salt)", "value": 181, "unit": "dpm"}, {"measurement": "MAO-B activity, brain", "setting": "MAO-B; brain, oral, 0.2 mg/kg/day (salt)", "value": 69, "unit": "dpm"}, {"measurement": "MAO-B activity, brain", "setting": "MAO-B; brain, oral, 0.4 mg/kg/day (salt)", "value": 34, "unit": "dpm"}, {"measurement": "MAO-B activity, brain", "setting": "MAO-B; brain, oral, 0.8 mg/kg/day (salt)", "value": 9, "unit": "dpm"}, {"measurement": "MAO-B activity, brain", "setting": "MAO-B; brain, sc ALZET pumps, 0.02 mg/kg/day (salt)", "value": 1229, "unit": "dpm"}, {"measurement": "MAO-B activity, brain", "setting": "MAO-B; brain, sc ALZET pumps, 0.05 mg/kg/day (salt)", "value": 346, "unit": "dpm"}, {"measurement": "MAO-B activity, brain", "setting": "MAO-B; brain, sc ALZET pumps, 0.1 mg/kg/day (salt)", "value": 198, "unit": "dpm"}, {"measurement": "MAO-B activity, brain", "setting": "MAO-B; brain, sc ALZET pumps, 0.2 mg/kg/day (salt)", "value": 75, "unit": "dpm"}, {"measurement": "MAO-B activity, brain", "setting": "MAO-B; brain, sc ALZET pumps, 0.4 mg/kg/day (salt)", "value": 38, "unit": "dpm"}, {"measurement": "MAOB inhibition in the intestine and liver, ALZET pumps compared with oral administration", "setting": "MAO-B; intestine and liver, daily dose of up to 0.1 mg/kg", "value": "lower"}, {"measurement": "maximal MAO-B inhibition in the intestine", "setting": "MAO-B; intestine, both routes (oral, ALZET pumps)", "value": "about 85%"}, {"measurement": "MAO-B activity, intestine", "setting": "MAO-B; intestine, oral, 0.02 mg/kg/day (salt)", "value": 3633, "unit": "dpm"}, {"measurement": "MAO-B activity, intestine", "setting": "MAO-B; intestine, oral, 0.05 mg/kg/day (salt)", "value": 3115, "unit": "dpm"}, {"measurement": "MAO-B activity, intestine", "setting": "MAO-B; intestine, oral, 0.1 mg/kg/day (salt)", "value": 2493, "unit": "dpm"}, {"measurement": "MAO-B activity, intestine", "setting": "MAO-B; intestine, oral, 0.2 mg/kg/day (salt)", "value": 2424, "unit": "dpm"}, {"measurement": "MAO-B activity, intestine", "setting": "MAO-B; intestine, oral, 0.4 mg/kg/day (salt)", "value": 2108, "unit": "dpm"}, {"measurement": "MAO-B activity, intestine", "setting": "MAO-B; intestine, oral, 0.8 mg/kg/day (salt)", "value": 2105, "unit": "dpm"}, {"measurement": "MAO-B activity, intestine", "setting": "MAO-B; intestine, sc ALZET pumps, 0.02 mg/kg/day (salt)", "value": 8265, "unit": "dpm"}, {"measurement": "MAO-B activity, intestine", "setting": "MAO-B; intestine, sc ALZET pumps, 0.05 mg/kg/day (salt)", "value": 4346, "unit": "dpm"}, {"measurement": "MAO-B activity, intestine", "setting": "MAO-B; intestine, sc ALZET pumps, 0.1 mg/kg/day (salt)", "value": 3225, "unit": "dpm"}, {"measurement": "MAO-B activity, intestine", "setting": "MAO-B; intestine, sc ALZET pumps, 0.2 mg/kg/day (salt)", "value": 2391, "unit": "dpm"}, {"measurement": "MAO-B activity, intestine", "setting": "MAO-B; intestine, sc ALZET pumps, 0.4 mg/kg/day (salt)", "value": 1852, "unit": "dpm"}, {"measurement": "MAO-B activity, intestine", "setting": "MAO-B; intestine, sc ALZET pumps, 0.8 mg/kg/day (salt)", "value": 1879, "unit": "dpm"}, {"measurement": "MAO-B activity, liver", "setting": "MAO-B; oral, 0.02 mg/kg/day (salt)", "value": 1127, "unit": "dpm"}, {"measurement": "MAO-B activity, liver", "setting": "MAO-B; oral, 0.05 mg/kg/day (salt)", "value": 511, "unit": "dpm"}, {"measurement": "MAO-B activity, liver", "setting": "MAO-B; oral, 0.1 mg/kg/day (salt)", "value": 224, "unit": "dpm"}, {"measurement": "MAO-B activity, liver", "setting": "MAO-B; oral, 0.2 mg/kg/day (salt)", "value": 136, "unit": "dpm"}, {"measurement": "MAO-B activity, liver", "setting": "MAO-B; oral, 0.4 mg/kg/day (salt)", "value": 38, "unit": "dpm"}, {"measurement": "MAO-B activity, liver", "setting": "MAO-B; sc ALZET pumps, 0.02 mg/kg/day (salt)", "value": 1974, "unit": "dpm"}, {"measurement": "MAO-B activity, liver", "setting": "MAO-B; sc ALZET pumps, 0.05 mg/kg/day (salt)", "value": 912, "unit": "dpm"}, {"measurement": "MAO-B activity, liver", "setting": "MAO-B; sc ALZET pumps, 0.1 mg/kg/day (salt)", "value": 486, "unit": "dpm"}, {"measurement": "MAO-B activity, liver", "setting": "MAO-B; sc ALZET pumps, 0.2 mg/kg/day (salt)", "value": 312, "unit": "dpm"}, {"measurement": "MAO-B activity, liver", "setting": "MAO-B; sc ALZET pumps, 0.4 mg/kg/day (salt)", "value": 181, "unit": "dpm"}, {"measurement": "MAO-B activity, liver", "setting": "MAO-B; sc ALZET pumps, 0.8 mg/kg/day (salt)", "value": 166, "unit": "dpm"}, {"measurement": "inhibition at 0.02 mg/kg/day", "setting": "MAO-B; [4]", "value": 83, "unit": "%"}, {"measurement": "inhibition at 0.4 mg/kg/day", "setting": "MAO-B; [4]", "value": 100, "unit": "%"}, {"measurement": "inhibition at 0.8 mg/kg/day", "setting": "MAO-B; [4]", "value": 100, "unit": "%"}, {"measurement": "inhibition at 0.02 mg/kg/day", "setting": "MAO-B; [5]", "value": 74, "unit": "%"}, {"measurement": "inhibition at 0.05 mg/kg/day", "setting": "MAO-B; [5]", "value": 78, "unit": "%"}, {"measurement": "inhibition at 0.1 mg/kg/day", "setting": "MAO-B; [5]", "value": 82, "unit": "%"}, {"measurement": "inhibition at 0.2 mg/kg/day", "setting": "MAO-B; [5]", "value": 83, "unit": "%"}, {"measurement": "inhibition at 0.4 mg/kg/day", "setting": "MAO-B; [5]", "value": 85, "unit": "%"}, {"measurement": "inhibition at 0.8 mg/kg/day", "setting": "MAO-B; [5]", "value": 85, "unit": "%"}, {"measurement": "inhibition at 0.02 mg/kg/day", "setting": "MAO-B; [6]", "value": 83, "unit": "%"}, {"measurement": "inhibition at 0.05 mg/kg/day", "setting": "MAO-B; [6]", "value": 92, "unit": "%"}, {"measurement": "inhibition at 0.8 mg/kg/day", "setting": "MAO-B; [6]", "value": 100, "unit": "%"}, {"measurement": "inhibition at 0.4 mg/kg/day", "setting": "MAO-B; [7]", "value": 100, "unit": "%"}, {"measurement": "inhibition at 0.8 mg/kg/day", "setting": "MAO-B; [7]", "value": 100, "unit": "%"}, {"measurement": "inhibition at 0.02 mg/kg/day", "setting": "MAO-B; [8]", "value": 37, "unit": "%"}, {"measurement": "inhibition at 0.05 mg/kg/day", "setting": "MAO-B; [8]", "value": 67, "unit": "%"}, {"measurement": "inhibition at 0.1 mg/kg/day", "setting": "MAO-B; [8]", "value": 76, "unit": "%"}, {"measurement": "inhibition at 0.2 mg/kg/day", "setting": "MAO-B; [8]", "value": 82, "unit": "%"}, {"measurement": "inhibition at 0.4 mg/kg/day", "setting": "MAO-B; [8]", "value": 86, "unit": "%"}, {"measurement": "inhibition at 0.8 mg/kg/day", "setting": "MAO-B; [8]", "value": 86, "unit": "%"}, {"measurement": "inhibition at 0.02 mg/kg/day", "setting": "MAO-B; [9]", "value": 67, "unit": "%"}, {"measurement": "inhibition at 0.05 mg/kg/day", "setting": "MAO-B; [9]", "value": 85, "unit": "%"}, {"measurement": "inhibition at 0.1 mg/kg/day", "setting": "MAO-B; [9]", "value": 92, "unit": "%"}, {"measurement": "weight gain", "setting": "[1]; 0.8 mg/kg/day delivered by ALZET pumps, first to last day of two-week study", "value": 1.3, "unit": "%"}, {"measurement": "weight gain", "setting": "[1]; all oral and ALZET pump groups except 0.8 mg/kg/day by ALZET pumps", "value": "6-9%"}]}]}
